Laboratory results as given in patent publication US20080312230A1, “Organic Compounds” (Novartis AG, priority 2005, published 2008).

Key:
CRTh2 receptor [1] = target: T1, CRTh2 receptor (Homo sapiens, UniProt Q9Y5Y4); experiment: CRTH2 cAMP functional assay in CHO.K1-CRTh2 cells; type: cell-based
T1 construct: expressed in transfected cells; host or cells: CHO.K1 (Chinese Hamster Ovary)
T1 sequence (Q9Y5Y4 1-395): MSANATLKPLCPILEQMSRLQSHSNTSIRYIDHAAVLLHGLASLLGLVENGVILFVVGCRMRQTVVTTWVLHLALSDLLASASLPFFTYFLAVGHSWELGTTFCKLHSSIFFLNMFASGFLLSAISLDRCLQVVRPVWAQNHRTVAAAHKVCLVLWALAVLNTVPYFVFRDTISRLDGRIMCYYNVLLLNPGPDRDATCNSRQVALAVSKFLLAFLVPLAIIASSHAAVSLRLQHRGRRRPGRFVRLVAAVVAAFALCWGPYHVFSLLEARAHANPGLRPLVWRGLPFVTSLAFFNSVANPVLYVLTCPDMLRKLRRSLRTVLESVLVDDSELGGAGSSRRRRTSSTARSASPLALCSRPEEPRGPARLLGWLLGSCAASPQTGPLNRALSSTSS
Procedure: The assay plate is incubated at room temperature on a shaker for 15 minutes.
A mix of agonist (10 nM Prostaglandin D2) and 5 μM forskolin is prepared in assay stimulation buffer and added to the assay plate (5 μL/well).
In addition, a cAMP standard is serially diluted in assay stimulation buffer and added to separate empty wells on the assay plate (20 μL/well).
The assay plate is incubated at room temperature on a shaker for 60 minutes.
The resulting lysis mix is added to all wells of the assay plate (40 μL/well).
The assay plate is sealed with Topseal-S™ and incubated in the dark at room temperature on a shaker for 45 minutes. The plate is then counted using a Packard Fusion™ instrument.
The resulting counts per minute are converted to nM cAMP by using the prepared cAMP standard curve.

CRTh2 receptor [2] = target: T1, CRTh2 receptor; experiment: Filtration binding assay: [3H]-PGD2 competition on CHO.K1-CRTh2 membranes; conditions: competition with 2.5 nM [3H]-PGD2, CHO.K1-CRTh2 membranes, Cheng-Prussoff; read-out: Ki values in the SPA binding assay
Procedure: Filtration Binding Assay Protocol
The binding of CRTh2 antagonists is determined using membranes prepared from human CRTh2-expressing Chinese Hamster Ovary cells (CHO.K1-CRTh2). To produce cell membranes CHO.K1-CRTh2 cells cultured in roller bottles are harvested using cell dissociation buffer (Invitrogen). The cells are pelleted by centrifugation (167 g, 5 min). The cell pellet is incubated in hypotonic buffer (15 mM Tris-OH, 2 mM MgCl2, 0.3 mM EDTA, 1 mM EGTA, 1× Complete™ tablet) at 4° C. for 30 min. At 4° C. cells are homogenized using a Polytron® (IKA Ultra Turrax T25) for 5 bursts of 1 second. The homogenate is centrifuged (Beckman Optima TM TL Ultracentrifuge, 48000 g, 30 min at 4° C.). The supernatant is discarded and the membrane pellet resuspended in homogenisation buffer (75 mM Tris-OH, 12.5 mM MgCl2, 0.3 mM EDTA, 1 mM EGTA, 250 mM Sucrose, 1× Complete™ tablet. Membrane preparations are aliquoted and stored at […]. The protein content is estimated using Bradford Protein Assay Dye (Bio Rad).
The binding of [^3H]-PGD2 (157 Ci/mmol) to CHO.K1-CRTh2 membranes is determined in the absence (total binding) and presence (non-specific binding) of unlabelled PGD2 (1 μM). Subtraction of the cpm (counts per minute) of [^3H]-PGD2 binding in presence of excess unlabelled PGD2 from that observed in the absence of excess unlabelled PGD2 is defined as specific binding. Active CRTh2 antagonists are able to compete with [^3H]-PGD2 for binding to the CRTh2 receptor and are identified in a decrease in the number of cpm bound.
The assay is performed in Greiner U-bottomed 96 well-plates, in a final volume of 100 μl per well. CHO.K1-CRTh2 membranes were diluted in assay buffer (10 mM HEPES-KOH (pH 7.4), 1 mM EDTA and 10 mM MnCl2) and 10 μg are added to each well. [^3H]-PGD2 is diluted in assay buffer and added to each well at a final concentration of 2.5 nM. To determine non-specific binding, [^3H]-PGD2 binding to the CRTh2 receptor is competed with using unlabelled PGD2 at a final well concentration of 1 μM. The experiment is done in triplicate, with reagents added to the wells as follows:
25 μL assay buffer for total binding or
25 μL PGD2 to determine non-specific binding
25 μL test compound in DMSO/assay buffer
The plates are incubated at room temperature on a shaker for 1 hour, and then harvested (Tomtec Harvester 9600) onto GF/C filter plates using wash buffer (10 mM HEPES-KOH, pH 7.4). The plate is dried for 2 hours, prior to addition of Micro-Scint 20™ (50 μL) and sealing with TopSeal-S™. Plates are then counted using a Packard Top Count instrument, Plates are then read on the Packard Topcount with the 3H Scintillation program (1 min per well).
Ki (dissocation constant for the inhibition) values for the CRTh2 antagonists are reported. Ki values are determined using Sigma Plot™ software, using the Cheng-Prussoff equation.
Where S is the Concentration of Radioligand and Kd is the Dissociation Constant.

| Compound | IC50 (CRTh2 receptor [1]) [nM] | Ki (CRTh2 receptor [2]) [nM] |
| --- | --- | --- |
| Cc1c(CC(=O)O)c2cccnc2n1S(=O)(=O)c1ccc([N+](=O)[O-])cc1 [Example 3] | 276 | – |
| Cc1c(CC(=O)O)c2ccc(Cl)nc2n1Cc1ccc(S(C)(=O)=O)cc1 [Example 99, [6-Chloro-1-(4-methanesulfonyl-benzyl)-2-methyl-1H-pyrrolo[2,3-b]pyridin-3-yl]-acetic acid] | – | 12 |
| Cc1c(CC(=O)O)c2cccnc2n1S(=O)(=O)c1ccc(Cl)c(C#N)c1 [Example 103, [1-(4-Chloro-3-cyano-benzenesulfonyl)-2-methyl-1H-pyrrolo[2,3-b]pyridin-3-yl]-acetic acid] | – | 35 |
| COc1cc(S(=O)(=O)n2c(C)c(CC(=O)O)c3cccnc32)ccc1F [Example 102, [1-(4-Fluoro-3-methoxy-benzenesulfonyl)-2-methyl-1H-pyrrolo[2,3-b]pyridin-3-yl]-acetic acid] | – | 56 |
| Cc1c(CC(=O)O)c2cccnc2n1C(C)c1ccc(C(F)(F)F)cc1 (stereo not drawn) [Example 115, {2-Methyl-1-[1-(4-trifluoromethyl-phenyl)-ethyl]-1H-pyrrolo[2,3-b]pyridin-3-yl}-acetic acid] | – | 45 |
| Cc1c(CC(=O)O)c2cccnc2n1Cc1ccc(S(C)(=O)=O)cc1 [Example 96] | – | 29 |
| Cc1cc(S(C)(=O)=O)ccc1Cn1c(C)c(CC(=O)O)c2cccnc21 [Example 112, [1-(4-Methanesulfonyl-2-methyl-benzyl)-2-methyl-1H-pyrrolo[2,3-b]pyridin-3-yl]-acetic acid] | – | 31 |
| CCS(=O)(=O)c1ccc(Cn2c(C)c(CC(=O)O)c3cccnc32)c(Cl)c1 [Example 94, [1-(2-Chloro-4-ethanesulfonyl-benzyl)-2-methyl-1H-pyrrolo[2,3-b]pyridin-3-yl]-acetic acid] | – | 7 |
| Cc1c(CC(=O)O)c2cccnc2n1C(C)c1ccc(S(C)(=O)=O)cc1 (stereo not drawn) [Example 117, {1-[1-(4-Methanesulfonyl-phenyl)-ethyl]-2-methyl-1H-pyrrolo[2,3-b]pyridin-3-yl}-acetic acid] | – | 25 |
| Cc1c(CC(=O)O)c2ccc(Cl)nc2n1Cc1ccc(S(C)(=O)=O)cc1C(F)(F)F [Example 100, [6-Chloro-1-(4-methanesulfonyl-2-trifluoromethyl-benzyl)-2-methyl-1H-pyrrolo[2,3-b]pyridin-3-yl]-acetic acid] | – | 5 |
| COc1cc(S(=O)(=O)n2c(C)c(CC(=O)O)c3cccnc32)ccc1C#N [Example 129, [1-(4-Cyano-3-methoxy-benzenesulfonyl)-2-methyl-1H-pyrrolo[2,3-b]pyridin-3-yl]-acetic acid] | – | 43 |
| Cc1c(CC(=O)O)c2cccnc2n1C(C)c1ccc(S(C)(=O)=O)cc1 (single isomer, unassigned) [Example 97, {1-[1-(4-Methanesulfonyl-phenyl)-ethyl]-2-methyl-1H-pyrrolo[2,3-b]pyridin-3-yl}-acetic acid] | – | 11 |
| COc1cc(S(=O)(=O)n2c(C)c(CC(=O)O)c3cccnc32)ccc1Cl [Example 148, [1-(4-Chloro-3-methoxy-benzenesulfonyl)-2-methyl-1H-pyrrolo[2,3-b]pyridin-3-yl]-acetic acid] | – | 64 |
| Cc1c(CC(=O)O)c2cccnc2n1Cc1ccc(S(C)(=O)=O)cc1Cl [Example 90, [1-(2-Chloro-4-methanesulfonyl-benzyl)-2-methyl-1H-pyrrolo[2,3-b]pyridin-3-yl]-acetic acid] | – | 3 |
| CCS(=O)(=O)c1ccc(Cn2c(C)c(CC(=O)O)c3cccnc32)c(C(F)(F)F)c1 [Example 93, [1-(4-Ethanesulfonyl-2-trifluoromethyl-benzyl)-2-methyl-1H-pyrrolo[2,3-b]pyridin-3-yl]-acetic acid] | – | 8 |
| Cc1c(CC(=O)O)c2cccnc2n1C(C)c1ccc(Cl)cc1 (stereo not drawn) [Example 84, {1-[1-(4-Chloro-phenyl)-ethyl]-2-methyl-1H-pyrrolo[2,3-b]pyridin-3-yl}-acetic acid] | 84 | 100 |
| CCOc1cc(S(=O)(=O)n2c(C)c(CC(=O)O)c3cccnc32)ccc1C#N [Example 127, [1-(4-Cyano-3-ethoxy-benzenesulfonyl)-2-methyl-1H-pyrrolo[2,3-b]pyridin-3-yl]-acetic acid] | – | 43 |
| Cc1c(CC(=O)O)c2cccnc2n1Cc1ccc(S(=O)(=O)C(C)C)cc1 [Example 105, {2-Methyl-1-[4-(propane-2-sulfonyl)-benzyl]-1H-pyrrolo[2,3-b]pyridin-3-yl}-acetic acid] | – | 98 |
| Cc1c(CC(=O)O)c2cccnc2n1Cc1ccc(S(C)(=O)=O)c(C(F)(F)F)c1 [Example 92, [1-(4-Methanesulfonyl-3-trifluoromethyl-benzyl)-2-methyl-1H-pyrrolo[2,3-b]pyridin-3-yl]-acetic acid] | – | 22 |
| CCCOc1cc(S(=O)(=O)n2c(C)c(CC(=O)O)c3cccnc32)ccc1C#N [Example 130, [1-(4-Cyano-3-propoxy-benzenesulfonyl)-2-methyl-1H-pyrrolo[2,3-b]pyridin-3-yl]-acetic acid] | – | 50 |
| Cc1c(CC(=O)O)c2cccnc2n1Cc1ccc([N+](=O)[O-])cc1 [Example 122, [2-Methyl-1-(4-nitro-benzyl)-1H-pyrrolo[2,3-b]pyridin-3-yl]-acetic acid] | – | 147 |
| Cc1c(CC(=O)O)c2cccnc2n1Cc1ccc(S(C)(=O)=O)c(Cl)c1 [Example 125, [1-(3-Chloro-4-methanesulfonyl-benzyl)-2-methyl-1H-pyrrolo[2,3-b]pyridin-3-yl]-acetic acid] | – | 27 |
| Cc1c(CC(=O)O)c2cccnc2n1Cc1ccc(C(F)(F)F)cc1C(F)(F)F [Example 119, [1-(2,4-Bis-trifluoromethyl-benzyl)-2-methyl-1H-pyrrolo[2,3-b]pyridin-3-yl]-acetic acid] | – | 29 |
